Assay results reported in patent US20050008851A1, “Biosensor” (FUJI PHOTO FILM CO., LTD., priority 2003, published 2005).

Details: water at 20° C.

First: C=Cc1ccccc1 [styrene]
Second: C=C(C)C(=O)OC [methyl methacrylate]
The solubility in water of the first is lower: 0.03 % by weight for the first, 1.35 % by weight for the second.

With C=C(C)C(=O)OCCCC [butyl methacrylate] the solubility in water was 0.03 % by weight.
